Source: ChEMBL document CHEMBL6182872, “Synthesis of Benzo[h]quinoline derivatives and evaluation of their insecticidal activity against Culex pipiens L. larvae” (Eur J Med Chem, 2025)
In brackets after ≈: the same amount, converted by molar mass.

The molecules below were run on Culex pipiens (assay: Toxicity in Culex pipiens at third larval instar measured after 24 hrs).
Type: organism-based
With `Cc1ccc(C(=O)C/C(=C\c2cc3ccc4ccccc4c3nc2Cl)C(=O)N/N=C/c2ccccc2O)cc1` the LC50 was 29.3 µg/mL (≈ 54.9 µM). Molecule `CCCCCCCCCCCC(=O)NN1C(=O)/C(=C/c2cc3ccc4ccccc4c3nc2Cl)C=C1c1ccc(C)cc1` has an LC50 of 0.4 µg/mL (≈ 0.673 µM). For `COc1ccc(/C=N/NC(=O)/C(=C/c2cc3ccc4ccccc4c3nc2Cl)CC(=O)c2ccc(C)cc2)cc1OC`, the LC50 was 202 µg/mL (≈ 349 µM). For `Cc1ccc(C(=O)C/C(=C\c2cc3ccc4ccccc4c3nc2Cl)C(=O)NNC(=O)CCC(=O)NNC(=O)/C(=C/c2cc3ccc4ccccc4c3nc2Cl)CC(=O)c2ccc(C)cc2)cc1`, the LC50 was 136 µg/mL (≈ 144 µM). `CC(=O)NNC(=O)/C(=C/c1cc2ccc3ccccc3c2nc1Cl)CC(=O)c1ccc(C)cc1` was tested, and the LC50 was 116 µg/mL (≈ 245 µM). For `Cc1ccc(C2=C/C(=C\c3cc4ccc5ccccc5c4nc3Cl)C(=O)N2NC(=O)c2ccccc2)cc1`, the LC50 was 4.9 µg/mL (≈ 9.5 µM). `Cc1ccc(C2=C/C(=C\c3cc4ccc5ccccc5c4nc3Cl)C(=O)N2NC(=O)CCl)cc1` gave an LC50 of 23.9 µg/mL (≈ 48.9 µM). `CC(=O)NN1C(=O)/C(=C/c2cc3ccc4ccccc4c3nc2Cl)C=C1c1ccc(C)cc1` showed an LC50 of 97.5 µg/mL (≈ 215 µM). `Cc1ccc(C(=O)C/C(=C\c2cc3ccc4ccccc4c3nc2Cl)C(=O)NN)cc1` was tested, and the LC50 was 86.4 µg/mL (≈ 201 µM). `CC(=O)N(C(C)=O)N1C(=O)/C(=C/c2cc3ccc4ccccc4c3nc2Cl)C=C1c1ccc(C)cc1` showed an LC50 of 329 µg/mL (≈ 663 µM). `CCOP(=S)(OCC)Oc1nc(Cl)c(Cl)cc1Cl` [CHLORPYRIFOS] was tested, and the LC50 was 272 µg/mL (≈ 776 µM).
